Experimental data from patent publication US12702660B2, “Method for treating cancer with an oral dosage form of an estrogen receptor-alpha inhibitor” (Eisai R&D Management Co., Ltd., priority 2019, dated 2026).
“Also recorded” adds a separate entry of the source.

How the values were obtained:
[1] = Plasma PK of capsules vs tablets in healthy human subjects, relative bioavailability; format: in vivo; settings: capsules and tablets
Description: Blood samples were collected at the planned time points from each patient and centrifuged. The plasma portion of each sample was then transferred to a K2EDTA tube, which was then shipped to a bioanalytical lab for concentration measurement using LC-MS/MS. The concentration data were then analyzed using Phoenix® WinNonlin software to obtain PK parameters. The obtained PK parameters were further summarized using analytical software.
Blood samples (approximately 5 mL each) were collected from human patients pre-dose and at various hourly time points post-dose. Plasma concentrations of H3B-6545 were determined using a validated high-performance liquid chromatography/tandem mass spectrometry (LC-MS/MS) method. The lower limit of quantification was 0.100 ng/mL.
The PK Analysis Set included subjects who received H3B-6545 drug product in capsules or tablets and had sufficient evaluable plasma concentration data to derive at least 1 primary PK parameter in each treatment. […]
Pharmacokinetic parameters of H3B-6545 were calculated using noncompartmental methods, using an appropriate model for plasma data and extravascular administration. The PK parameters included, but were not limited to, area under the curve to the time of the last quantifiable concentration (AUC0-t), maximum concentration (Cmax), and time at which the maximum concentration occurred (tmax). […]

[2] = Safety: treatment-related adverse events and dose-limiting toxicities, phase 1 dose escalation; format: in vivo, human
Excerpt: Example 3 reports Clinical and Genomics Analysis of a single trial. The Study Population in Example 3 was as follows: • Women ≥18 years old with locally advanced or metastatic ER+HER2−BC. • Progression on at least one hormonal therapy and at least one additional therapy/regimen; no maximum number of prior lines of therapy. • ECOG performance status of 0 or 1. • Adequate bone marrow and organ function. • Excluded if had bone-only disease or inflammatory BC.
Methods were used to analyze whether H3B-6545 inactivates both wild-type and mutant ERα by targeting cysteine 530 and enforcing a unique antagonist conformation. Methods: Women with locally advanced or metastatic HR+BC are treated (tx) with H3B-6545 drug product administered once daily orally by capsule over a 28 day cycle after progression on at least one hormonal therapy and at least one additional therapy/regimen. Dose escalation uses a 3+3 design with the option to backfill previously cleared doses and allows for intrapatient dose escalation. This example explored the safety, pharmacokinetics and pharmacodynamics of H3B-6545 in women with HR+BC to identify a recommended subsequent dose for testing.
• H3B-6545 administered once daily orally over a 28 day cycle. • Dose escalation using a standard 3+3 study design using dose cohorts of 100, 200, 300, 450, and 600 mg QD. • Patients allowed to backfill previously cleared doses. • Intra-patient dose escalation allowed after completion of Cycle 3. […]

[3] = tested on: ctDNA (ESR1, PIK3CA and AKT1 mutations); test: ctDNA mutant allele frequency monitoring (BEAMing, ddPCR) in plasma; format: in vivo, human
Excerpt: Fresh plasma samples were collected at baseline (predose), cycle 1 day 15 (CID15), C2D1, C3D1 and every 8 weeks thereafter with a final sample collection at disease progression. At baseline, BEAMing digital PCR was used to evaluate hotspot mutations in ESR1, PIK3CA and AKT1. Patient specific ctDNA mutations were subsequently monitored by ddPCR. Baseline tumor biopsies were subjected to a targeted Next Generation Sequencing (NGS) panel to identify hotspot mutations.
• H3B-6545 administered once daily orally (PO QD) over a 28-day cycle • Dose escalation using a standard 3+3 study design using dose cohorts of 100, 200, 300, 450, and 600 mg/day
Liquid biopsy assays: 10 ml of Strek plasma was collected at the site and then processed into plasma at Sysmex Inostics. cfDNA was isolated from 2 ml of plasma for BEAMing and 3 ml for Biorad ddPCR

[4] = Plasma PK of H3B-6545 capsules in fasted patients, phase 1 dose escalation; format: in vivo, human; settings: 100 to 450 mg; as of 10 Dec. 2018
[5] = 100 mg QD (N = 6), as of Apr. 20, 2019
[6] = 200 mg QD (N = 12), as of Apr. 20, 2019
[7] = 300 mg QD (N = 11), as of Apr. 20, 2019
[8] = 450 mg QD (N = 10), as of Apr. 20, 2019
[9] = 600 mg QD (N = 7), as of Apr. 20, 2019
[10] = Total (N = 46), 100 to 600 mg QD, as of Apr. 20, 2019
[11] = as of Apr. 20, 2019, 100 to 600 mg QD

CN(C)C(=O)/C=C/CNCCOc1ccc(/C(=C(/CC(F)(F)F)c2ccccc2)c2ccc3[nH]nc(F)c3c2)cn1 [H3B-6545, (E)-N,N-dimethyl-4-[2-[5-[(Z)-4,4,4-trifluoro-1-(3-fluoro-1H-indazol-5-yl)-2-phenylbut-1-enyl]pyridin-2-yl]oxyethylamino]but-2-enamide]
tolerability [1]: well-tolerated
Subjects with any TRAE [2, 5]: 4
TRAE Anaemia, subjects [2, 5]: 0
TRAE Aspartate aminotransferase increased, subjects [2, 5]: 0
TRAE Diarrhoea, subjects [2, 5]: 1
TRAE Fatigue, subjects [2, 5]: 1
TRAE Nausea, subjects [2, 5]: 1
TRAE Sinus bradycardia, subjects [2, 5]: 0
Subjects with any TRAE [2, 6]: 6
TRAE Anaemia, subjects [2, 6]: 1
TRAE Aspartate aminotransferase increased, subjects [2, 6]: 1
TRAE Diarrhoea, subjects [2, 6]: 1
TRAE Fatigue, subjects [2, 6]: 2
TRAE Nausea, subjects [2, 6]: 0
TRAE Sinus bradycardia, subjects [2, 6]: 2
Subjects with any TRAE [2, 7]: 9
TRAE Anaemia, subjects [2, 7]: 2
TRAE Aspartate aminotransferase increased, subjects [2, 7]: 1
TRAE Diarrhoea, subjects [2, 7]: 2
TRAE Fatigue, subjects [2, 7]: 3
TRAE Nausea, subjects [2, 7]: 3
TRAE Sinus bradycardia, subjects [2, 7]: 7
Subjects with any TRAE [2, 8]: 9
TRAE Anaemia, subjects [2, 8]: 3
TRAE Aspartate aminotransferase increased, subjects [2, 8]: 1
TRAE Diarrhoea, subjects [2, 8]: 3
TRAE Fatigue, subjects [2, 8]: 1
TRAE Nausea, subjects [2, 8]: 4
TRAE Sinus bradycardia, subjects [2, 8]: 3
Subjects with any TRAE [2, 9]: 5
TRAE Anaemia, subjects [2, 9]: 1
TRAE Aspartate aminotransferase increased, subjects [2, 9]: 2
TRAE Diarrhoea, subjects [2, 9]: 0
TRAE Fatigue, subjects [2, 9]: 1
TRAE Nausea, subjects [2, 9]: 1
TRAE Sinus bradycardia, subjects [2, 9]: 0
dose-limiting toxicity (DLT)s, number ([2]; 600 mg QD cohort, Grade 3 fatigue and Grade 3 rash morbilliform, as of Apr. 20, 2019): Two
sinus bradycardia, dose or concentration dependence ([2]; 46 patients, 100 to 600 mg QD): does not appear to be dose- or concentration-dependent
TRAEs ≥Grade 4 ([2]; 46 patients, 100 to 600 mg QD, as of Apr. 20, 2019): no TRAEs ≥Grade 4
Grade 3 TRAEs, number ([2]; 46 patients, 100 to 600 mg QD, two at 450 mg, four at 600 mg, as of Apr. 20, 2019): Six
Subjects with any TRAE [2, 10]: 33
TRAE Anaemia, subjects [2, 10]: 7
TRAE Aspartate aminotransferase increased, subjects [2, 10]: 5
TRAE Diarrhoea, subjects [2, 10]: 7
TRAE Fatigue, subjects [2, 10]: 8
TRAE Nausea, subjects [2, 10]: 9
TRAE Sinus bradycardia, subjects [2, 10]: 12
dose-limiting toxicities ([2]; as of 10 Dec. 2018, 32 patients, 100 to 450 mg/day): No dose-limiting toxicities
Grade 3 treatment related adverse events (TRAE), number ([2]; as of 10 Dec. 2018, 32 patients, 100 to 450 mg/day, lymphocyte count decrease): one
tolerability ([2]; as of 10 Dec. 2018, H3B-6545 drug product): well-tolerated up to the 450 mg dose level
grade of TRAEs [2, 11]: Most TRAEs were grade 1 or 2 and manageable
tolerated dose [2, 11]: tolerated up to and including 450 mg QD
changes in mutant allele frequencies versus response ([3]; plasma): show correlation in response to treatment; also recorded: show correlation to clinical response
ctDNA levels by C2D1 in patients with confirmed partial response ([3]; serial ctDNA monitoring): undetectable
patients with confirmed partial responses whose ctDNA levels were undetectable by C2D1 ([3]; serial ctDNA monitoring): 3/3
patients with progressive disease whose ctDNA levels increased from baseline ([3]; serial ctDNA monitoring): 3/4
plasma concentration versus dose [4]: increased with dose
